Drawing on PubChem BioAssay AID504731 (National Center for Advancing Translational Sciences (NCATS), 2011), this text covers half-life for one molecule.

Molecules are shown by their SMILES.

The data set has as its system mouse liver microsomes, T1/2, LC-MS/MS. As to the kind of experiment: Allosteric/Competitive Inhibitors of Caspase 1: Metabolic Stability Profiling. As to conditions: at 1 µM; active compounds read high. The text has this:
The caspases (Cysteine Aspartyl Protease) comprise a related family of 14 dimeric proteases that are critical mediators of apoptosis (programmed cell death) and inflammation. The caspases represent an important class of drug targets for stroke, ischemia, cancer and inflammatory diseases. The goal of this project was to identify compounds that act as selective inhibitors caspase 1. To identify both allosteric and competitive inhibitors of caspase 1, the enzyme was screened using a pro-fluorescent substrate in a qHTS format. […] Mouse liver microsomes are created through broken up endoplasmic reticulum from mouse liver. These liver microsomes contain many drug metabolizing enzymes, such as Cytochome P-450s and flavin-containing monooxygenases. Because metabolism is major way of drug clearance, this is an important result. H Chemical Genomics Center [NCGC] NIH Molecular Libraries Probe Production Centers Network [MLPCN] MLSCN Grant: 1 X01 MH078950-01 PI Name: Dr. James Wells
1uM of compound in incubated in mouse liver microsome; the reference compound is ketanserin. Compounds are incubated at 37 degrees C for different time periods: 0, 5, 15, 30, 45, and 60 minutes. Samples are analyzed with LC-MS/MS.

For `CC(C)(C)[C@H](NC(=O)c1ccc(N)c(Cl)c1)C(=O)N1CCC[C@H]1C(=O)N[C@H](C#N)CC(=O)O`, the half-life was 3.43 h.

As a reminder, the half-life is the time needed for the level to fall by half in the phase considered.
